Numbered stars: 1 amine (or outer) side, 2 acyl side, 3 side chain; on linkers, the order of the positions; unused ones are H or OH. Bridge positions count the residues as written; N and C are the ends. Square brackets hold non-standard residues; d marks the D form. Peptide text beside a SMILES is read from it. I, II: the chains in the order shown. Actinocin(9to1) = Cc1c2oc3c(C)ccc(C(=O)[*:1])c3nc-2c(C(=O)[*:2])c(N)c1=O; NMeV = CN[C@H](C(=O)O)C(C)C; Sar = CNCC(=O)O
Columns and labels:
Type in all cases: cell-based, Spodoptera frugiperda
Sf9P35AcV5-3 cells [1] = assay: DNA laddering on agarose gel after actinomycin D exposure; conditions: 0.1 μg/ml actinomycin D for one hour, 24 hours in fresh TNMFH
Experimental: (§1) To further examine resistance to apoptosis by P35 expressing cells, Sf9, Sf9^P35AcV5−1 and Sf9^P35AcV5−3 cells were plated at 2×10^6 cells/well in 6-well plates, then exposed to actinomycin D (0.1 μg/ml) for one hour, and incubated in fresh TNMFH medium at 27° C. for 24 hours. Cells were harvested and washed twice with PBS. Lysates were prepared by incubating cells in 200 μl lysis buffer (10 mM Tris pH 7.5, 25 mM EDTA, 0.2% Triton X-100) for one hour at room temperature. The lysate was extracted once with phenol, once with phenol:chloroform (1:1), twice with chloroform, and then precipitated in two volumes of ethanol. Cellular DNA was resuspended in 30 μl water containing RNAse A (50 μg/ml). 10 μl of DNA from each cell treatment was electrophoresed on a 1.2% agarose gel in TBE buffer (not shown).

Sf9P35AcV5-1 cells [2] = assay: as above; conditions: 0.1 μg/ml actinomycin D for one hour, 24 hours in fresh TNMFH
Experimental: as §1

Sf9 cells = assay: as above; conditions: 0.1 μg/ml actinomycin D for one hour, 24 hours in fresh TNMFH
Experimental: as §1

Sf9P35AcV5-3 cells [3] = assay: Resistance to induction of apoptosis by actinomycin D: cell survival
Experimental: (§2) The cells were examined for resistance to induction of apoptosis by actinomycin D, as well as survival under conditions of nutrient deprivation. Sf9 cells or stably transfected lines Sf9^P35AcV5−1 and Sf9^P35AcV5−3 were incubated in medium containing 0.1 μg/ml actinomycin D for 1 hour, then placed in TNMFH medium.
(§3) Increasing doses of actinomycin D were tested to further examine the degree of resistance to this inducer of apoptosis. Sf9 or stably transfected cells expressing P35 were incubated in a range of concentrations of actinomycin D (0.01 to 0.5 μg/ml) for one hour, then placed in TNMFH and scored for cell survival after 1-4 days (Table 2).

Sf9P35AcV5-1 cells [4] = assay: as above
Experimental: as §2, §3

[5] = 0.01 μg/ml actinomycin D for one hour, Day 1
[6] = 0.01 μg/ml actinomycin D for one hour, Day 2
[7] = 0.01 μg/ml actinomycin D for one hour, Day 3
[8] = 0.01 μg/ml actinomycin D for one hour, Day 4
[9] = 0.025 μg/ml actinomycin D for one hour, Day 1
[10] = 0.025 μg/ml actinomycin D for one hour, Day 2
[11] = 0.025 μg/ml actinomycin D for one hour, Day 3
[12] = 0.025 μg/ml actinomycin D for one hour, Day 4
[13] = 0.05 μg/ml actinomycin D for one hour, Day 1
[14] = 0.05 μg/ml actinomycin D for one hour, Day 2
[15] = 0.05 μg/ml actinomycin D for one hour, Day 3
[16] = 0.05 μg/ml actinomycin D for one hour, Day 4
[17] = 0.075 μg/ml actinomycin D for one hour, Day 1
[18] = 0.075 μg/ml actinomycin D for one hour, Day 2

Cc1c2oc3c(C)ccc(C(=O)N[C@@H]4C(=O)N[C@H](C(C)C)C(=O)N5CCC[C@H]5C(=O)N(C)CC(=O)N(C)[C@@H](C(C)C)C(=O)O[C@@H]4C)c3nc-2c(C(=O)N[C@@H]2C(=O)N[C@H](C(C)C)C(=O)N3CCC[C@H]3C(=O)N(C)CC(=O)N(C)[C@@H](C(C)C)C(=O)O[C@@H]2C)c(N)c1=O [Actinomycin D, actinomycin D] (I: T[dV]P[Sar][NMeV] / II: T[dV]P[Sar][NMeV]; ester I:1-I:C, II:1-II:C; linker I:N-II:N via Actinocin(9to1))
DNA laddering / degradation on ethidium bromide stained gel (Sf9P35AcV5-3 cells [1]): little or no laddering or degradation | DNA laddering / degradation on ethidium bromide stained gel (Sf9P35AcV5-1 cells [2]): little or no laddering or degradation | DNA laddering / degradation on ethidium bromide stained gel (Sf9 cells): DNA laddering effect typical of apoptosis | Sf9P35AcV5-3 Cell Survival (Percentage) (Sf9P35AcV5-3 cells [3]; [5]): 100 Percentage | Sf9P35AcV5-3 Cell Survival (Percentage) (Sf9P35AcV5-3 cells [3]; [6]): 100 Percentage | Sf9P35AcV5-3 Cell Survival (Percentage) (Sf9P35AcV5-3 cells [3]; [7]): 100 Percentage | Sf9P35AcV5-3 Cell Survival (Percentage) (Sf9P35AcV5-3 cells [3]; [8]): 100 Percentage | Sf9P35AcV5-3 Cell Survival (Percentage) (Sf9P35AcV5-3 cells [3]; [9]): 100 Percentage | Sf9P35AcV5-3 Cell Survival (Percentage) (Sf9P35AcV5-3 cells [3]; [10]): 100 Percentage | Sf9P35AcV5-3 Cell Survival (Percentage) (Sf9P35AcV5-3 cells [3]; [11]): 100 Percentage | Sf9P35AcV5-3 Cell Survival (Percentage) (Sf9P35AcV5-3 cells [3]; [12]): 100 Percentage | Sf9P35AcV5-3 Cell Survival (Percentage) (Sf9P35AcV5-3 cells [3]; [13]): 100 Percentage | Sf9P35AcV5-3 Cell Survival (Percentage) (Sf9P35AcV5-3 cells [3]; [14]): 100 Percentage | Sf9P35AcV5-3 Cell Survival (Percentage) (Sf9P35AcV5-3 cells [3]; [15]): 100 Percentage | Sf9P35AcV5-3 Cell Survival (Percentage) (Sf9P35AcV5-3 cells [3]; [16]): 100 Percentage | Sf9P35AcV5-3 Cell Survival (Percentage) (Sf9P35AcV5-3 cells [3]; [17]): 100 Percentage | Sf9P35AcV5-3 Cell Survival (Percentage) (Sf9P35AcV5-3 cells [3]; [18]): 100 Percentage | Sf9P35AcV5-3 Cell Survival (Percentage) (Sf9P35AcV5-3 cells [3]; 0.075 μg/ml actinomycin D for one hour, Day 3): 100 Percentage | Sf9P35AcV5-3 Cell Survival (Percentage) (Sf9P35AcV5-3 cells [3]; 0.075 μg/ml actinomycin D for one hour, Day 4): 100 Percentage | survival of Sf9P35AcV5-3 cells (Sf9P35AcV5-3 cells [3]; 0.1 μg/ml actinomycin D for 1 hour, then TNMFH medium, after three days): survived | Sf9P35AcV5-3 Cell Survival (Percentage) (Sf9P35AcV5-3 cells [3]; 0.1 μg/ml actinomycin D for one hour, Day 1): 100 Percentage | Sf9P35AcV5-3 Cell Survival (Percentage) (Sf9P35AcV5-3 cells [3]; 0.1 μg/ml actinomycin D for one hour, Day 2): 100 Percentage | Sf9P35AcV5-3 Cell Survival (Percentage) (Sf9P35AcV5-3 cells [3]; 0.1 μg/ml actinomycin D for one hour, Day 3): 100 Percentage | Sf9P35AcV5-3 Cell Survival (Percentage) (Sf9P35AcV5-3 cells [3]; 0.1 μg/ml actinomycin D for one hour, Day 4): 100 Percentage | survival of stably transfected line (Sf9P35AcV5-3 cells [3]; 0.25 μg/ml actinomycin D): 100% | Sf9P35AcV5-3 Cell Survival (Percentage) (Sf9P35AcV5-3 cells [3]; 0.25 μg/ml actinomycin D for one hour, Day 1): 100 Percentage | Sf9P35AcV5-3 Cell Survival (Percentage) (Sf9P35AcV5-3 cells [3]; 0.25 μg/ml actinomycin D for one hour, Day 2): 100 Percentage | Sf9P35AcV5-3 Cell Survival (Percentage) (Sf9P35AcV5-3 cells [3]; 0.25 μg/ml actinomycin D for one hour, Day 3): 100 Percentage | Sf9P35AcV5-3 Cell Survival (Percentage) (Sf9P35AcV5-3 cells [3]; 0.25 μg/ml actinomycin D for one hour, Day 4): 100 Percentage | survival of stably transfected line (Sf9P35AcV5-3 cells [3]; 0.5 μg/ml actinomycin D): ≤ 10% | Sf9P35AcV5-3 Cell Survival (Percentage) (Sf9P35AcV5-3 cells [3]; 0.5 μg/ml actinomycin D for one hour, Day 1): 9.2 Percentage | Sf9P35AcV5-3 Cell Survival (Percentage) (Sf9P35AcV5-3 cells [3]; 0.5 μg/ml actinomycin D for one hour, Day 2): 8.5 Percentage | Sf9P35AcV5-3 Cell Survival (Percentage) (Sf9P35AcV5-3 cells [3]; 0.5 μg/ml actinomycin D for one hour, Day 3): 1.5 Percentage | Sf9P35AcV5-3 Cell Survival (Percentage) (Sf9P35AcV5-3 cells [3]; 0.5 μg/ml actinomycin D for one hour, Day 4): 0 Percentage | resistance to actinomycin D as an inducer of apoptosis (Sf9P35AcV5-3 cells [3]; relative to Sf9 cells): ≥ 2 fold | Sf9P35AcV5-1 Cell Survival (Percentage) (Sf9P35AcV5-1 cells [4]; [5]): 100 Percentage | Sf9P35AcV5-1 Cell Survival (Percentage) (Sf9P35AcV5-1 cells [4]; [6]): 100 Percentage | Sf9P35AcV5-1 Cell Survival (Percentage) (Sf9P35AcV5-1 cells [4]; [7]): 100 Percentage | Sf9P35AcV5-1 Cell Survival (Percentage) (Sf9P35AcV5-1 cells [4]; [8]): 100 Percentage | Sf9P35AcV5-1 Cell Survival (Percentage) (Sf9P35AcV5-1 cells [4]; [9]): 100 Percentage | Sf9P35AcV5-1 Cell Survival (Percentage) (Sf9P35AcV5-1 cells [4]; [10]): 100 Percentage | Sf9P35AcV5-1 Cell Survival (Percentage) (Sf9P35AcV5-1 cells [4]; [11]): 100 Percentage | Sf9P35AcV5-1 Cell Survival (Percentage) (Sf9P35AcV5-1 cells [4]; [12]): 100 Percentage | Sf9P35AcV5-1 Cell Survival (Percentage) (Sf9P35AcV5-1 cells [4]; [13]): 100 Percentage | Sf9P35AcV5-1 Cell Survival (Percentage) (Sf9P35AcV5-1 cells [4]; [14]): 100 Percentage | Sf9P35AcV5-1 Cell Survival (Percentage) (Sf9P35AcV5-1 cells [4]; [15]): 100 Percentage | Sf9P35AcV5-1 Cell Survival (Percentage) (Sf9P35AcV5-1 cells [4]; [16]): 100 Percentage | Sf9P35AcV5-1 Cell Survival (Percentage) (Sf9P35AcV5-1 cells [4]; [17]): 100 Percentage | Sf9P35AcV5-1 Cell Survival (Percentage) (Sf9P35AcV5-1 cells [4]; [18]): 100 Percentage

Source: patent US7405038B1, “Stable cell lines resistant to apoptosis and nutrient stress and methods of making same” (Boyce Thompson Institute for Plant Research, Inc., priority 2000, dated 2008)
